Literature values as cited in patent US12582591B2, “Increased solubilization of ethylhexyl triazone” (DSM IP Assets B.V., priority 2020, dated 2026).
Read-outs that look alike come from different tables or passages of the source.

Details: for Solubility in esters and alcohols: particularly ethyl acetate, ethanol / alcohols
[1] = listed as UV-filter of the formula (I)

Solubility in esters and alcohols: moderate solubility
Solubility in esters and alcohols [1]: very soluble
Solubility in water and alkanes: very low
Solubility in water and alkanes [1]: insoluble
SMILES: CCCCC(CC)COC(=O)c1ccc(Nc2nc(Nc3ccc(C(=O)OCC(CC)CCCC)cc3)nc(Nc3ccc(C(=O)OCC(CC)CCCC)cc3)n2)cc1 (stereo not shown) [Ethylhexyl triazone, ethylhexyl triazone]
